Target: T1, N-lysine methyltransferase KMT5A (Homo sapiens, UniProt Q9NQR1)
T1 sequence (Q9NQR1 whole entry): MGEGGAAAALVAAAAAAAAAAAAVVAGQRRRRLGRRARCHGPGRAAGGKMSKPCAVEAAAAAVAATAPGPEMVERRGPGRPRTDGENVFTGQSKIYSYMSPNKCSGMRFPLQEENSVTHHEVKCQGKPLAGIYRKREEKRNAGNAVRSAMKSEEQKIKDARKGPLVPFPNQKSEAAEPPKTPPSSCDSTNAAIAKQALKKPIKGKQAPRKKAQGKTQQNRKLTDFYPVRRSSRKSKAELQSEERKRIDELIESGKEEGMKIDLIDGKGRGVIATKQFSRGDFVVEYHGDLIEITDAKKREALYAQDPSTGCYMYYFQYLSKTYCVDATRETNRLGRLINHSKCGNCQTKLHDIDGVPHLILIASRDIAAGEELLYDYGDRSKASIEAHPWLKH
Assay: Inhibition of human SETD8 catalytic domain expressed in Escherichia coli assessed as reduction in transfer of tritiated methyl group from [3H]SAM to biotinylated H4 (1 to 24) peptide substrate by scintillation proximity assay

IC50, > 250 µM:
COc1cc2nc(N3CCCC3)nc(NCC(=O)NCCN3CCN(C)CC3)c2cc1OC
COc1cc2nc(N3CCCC3)nc(N[C@H]3CC[C@H](N)CC3)c2cc1OC
COc1cc2nc(N3CCCC3)nc(N[C@H]3CC[C@H](CN)CC3)c2cc1OC
COc1cc2nc(N3CCCC3)nc(NCC(=O)NCCN3CCCC3)c2cc1OC
COc1cc2nc(N3CCCC3)nc(NCC(=O)NCCN3CCNCC3)c2cc1OC
COc1cc2nc(N(C)CCN3CCCC3)nc(NCCCCCN3CCCC3)c2cc1OC
COc1cc2nc(N(C)CCCN3CCCC3)nc(NCCCCCN3CCCC3)c2cc1OC
COc1cc2nc(N(C)CCCCN3CCCC3)nc(NCCCCCN3CCCC3)c2cc1OC
COc1cc2nc(N(C)CCCCCN3CCCC3)nc(NCCCCCN3CCCC3)c2cc1OC
COc1cc2nc(N(C)c3ccccc3)nc(NCCCCCN3CCCC3)c2cc1OC
COc1ccc(N(C)c2nc(NCCCCCN3CCCC3)c3cc(OC)c(OC)cc3n2)cc1
COc1cc2nc(N(C)c3ccc([N+](=O)[O-])cc3)nc(NCCCCCN3CCCC3)c2cc1OC
COc1cc2nc(Nc3ccccc3)nc(NCCCCCN3CCCC3)c2cc1OC
COc1ccc(Nc2nc(NCCCCCN3CCCC3)c3cc(OC)c(OC)cc3n2)cc1
COc1cc2nc(Nc3ccc(C(F)(F)F)cc3)nc(NCCCCCN3CCCC3)c2cc1OC
COc1cc2nc(Nc3ccc([N+](=O)[O-])cc3)nc(NCCCCCN3CCCC3)c2cc1OC
COc1cc2nc(-c3ccccc3)nc(NCCCCCN3CCCC3)c2cc1OC
COc1ccc(-c2nc(NCCCCCN3CCCC3)c3cc(OC)c(OC)cc3n2)cc1
COc1cc2nc(-c3ccc(C(F)(F)F)cc3)nc(NCCCCCN3CCCC3)c2cc1OC
COc1cc2nc(-c3ccc(F)cc3)nc(NCCCCCN3CCCC3)c2cc1OC
c1ccc2c(NCCCCCN3CCCC3)nc(N3CCCC3)nc2c1

From ChEMBL document CHEMBL3621065, “Structure-activity relationship studies of SETD8 inhibitors” (Medchemcomm, 2014)
